The assay concerns the target T1, Chk1 (Homo sapiens, UniProt O14757).
T1 construct: purchased Upstate Biotechnology
T1 sequence (O14757 1-476): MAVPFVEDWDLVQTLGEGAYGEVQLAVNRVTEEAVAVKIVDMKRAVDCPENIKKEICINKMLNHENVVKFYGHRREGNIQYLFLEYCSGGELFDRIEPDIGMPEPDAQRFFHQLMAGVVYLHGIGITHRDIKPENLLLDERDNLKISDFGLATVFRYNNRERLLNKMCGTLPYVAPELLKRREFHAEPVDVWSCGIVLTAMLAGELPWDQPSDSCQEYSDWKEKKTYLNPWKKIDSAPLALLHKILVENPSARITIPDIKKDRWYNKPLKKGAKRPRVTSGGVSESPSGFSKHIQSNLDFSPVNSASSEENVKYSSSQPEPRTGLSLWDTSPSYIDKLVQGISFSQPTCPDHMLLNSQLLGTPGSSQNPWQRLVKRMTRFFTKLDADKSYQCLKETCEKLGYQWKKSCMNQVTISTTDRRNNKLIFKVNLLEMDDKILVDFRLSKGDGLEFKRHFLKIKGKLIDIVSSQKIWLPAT
The assay can be described thus: Chk1 assay: incorporation of γ-33P ATP into immobilized myelin basic protein. The assay is classed as biochemical. To be noted: Table 11; Chk1 only. As for the experimental part: Chk1 and Chk2 assays were performed by measuring incorporation of γ-^33P ATP into immobilized myelin basic protein (MBP). High binding white 384 well plates (Greiner) were coated with MBP (Sigma #M-1891) by incubation of 60ul/well of 20µg/ml MBP in Tris-buffered saline (TBS; 50mM Tris pH 8.0, 138mM NaCl, 2.7mM KCl) for 24 hours at 4° C. Plates were washed 3X with 100µl TBS. Kinase reactions were carried out in a total volume of 34µl in kinase buffer (5mM Hepes pH 7.6, 15mM NaCl, 0.01% bovine gamma globulin (Sigma #I-5506), 10mM MgCl2, 1mM DTT, 0.02% TritonX-100). Compound dilutions were performed in DMSO and added to assay wells to a final DMSO concentration of 1%. Each data point was measured in duplicate, and at least two duplicate assays were performed for each individual compound determination. Chkl and Chk2 enzymes (Upstate Biotechnology) were added to final concentrations of 10nM (Chkl) or 20nM (Chk2). A mixture of unlabeled ATP and γ-^33P ATP was added to start the reaction (2x10^6 cpm of γ-^33P ATP per well (3000Ci/mmole) and either 10µM or 30µM unlabeled ATP (for Chkl and Chk2 assays respectively). The reaction was carried out for 1 hour at room temperature with shaking. Plates were washed 7x with TBS, followed by the addition of 50µl/well scintillation fluid (Wallac). Plates were read using a Wallac Trilux counter. This is only one format of such assays, various other formats are possible, as known to those skilled in the art.
The above assay procedure can be used to determine the IC50 for inhibition and/or the inhibition constant Ki. The IC50 is defined as the concentration of compound required to reduce the enzyme activity by 50% under the conditions of the assay. […] The Ki for a compound may be determined from the IC50 based on three assumptions. First, only one compound molecule binds to the enzyme and there is no cooperativity. […] Third, the enzymatic rate of the enzyme-inhibitor complex is zero. The rate (i.e., compound concentration) data are fitted to the equation: V = Vmax E0 [I-((E0+I0+Kd)-sqrt(((E0+I0+Kd))^2 -4E0 I0))/(2E0)] [formula]

pIC50: −log10 of the molar value.

One may read the pIC50 as the negative decadic logarithm of the IC50, by convention in mol/L. Low values mean a large IC50, high ones a small IC50. `Nc1ncc(-c2ccccc2)nc1C(=O)NCCc1ccccc1` [compound 1, 3-amino-6-phenyl-N-(2-phenylethyl)pyrazine-2-carboxamide] showed a pIC50 of less than 5.00.
Take `Nc1ncc(-c2ccccc2)nc1C(=O)NCc1ccccc1` [compound 2, 3-amino-6-phenyl-N-(phenylmethyl)pyrazine-2-carboxamide]: the pIC50 is less than 5.00.
As to `NC(=O)c1nc(-c2cccc(Cl)c2)cnc1N` [compound 3, 3-amino-6-(3-chlorophenyl)pyrazine-2-carboxamide], the pIC50 is less than 5.00.
As for `Nc1ncc(-c2ccccc2)nc1C(=O)N[C@@H]1CCc2ccccc21` [compound 4, 3-amino-N-[(1R)-2,3-dihydro-1H-inden-1-yl]-6-phenylpyrazine-2-carboxamide], the pIC50 is less than 5.00.
As to `Nc1ncc(-c2ccccc2)nc1C(=O)NC1Cc2ccccc2C1` [compound 6, 3-amino-N-(2,3-dihydro-1H-inden-2-yl)-6-phenylpyrazine-2-carboxamide], the negative-log IC50 (pIC50) is less than 5.00.
`NC(=O)c1nc(-c2ccccc2Cl)cnc1N` [compound 7, 3-amino-6-(2-chlorophenyl)pyrazine-2-carboxamide] had a pIC50 of less than 5.00.
With `Nc1ncc(-c2ccccc2)nc1C(=O)NC1CCCC1` [compound 8, 3-amino-N-cyclopentyl-6-phenylpyrazine-2-carboxamide], the pIC50 is less than 5.00.
For the molecule `CN(C)C(=O)c1nc(-c2ccccc2)cnc1N` [compound 9, 3-amino-N,N-dimethyl-6-phenylpyrazine-2-carboxamide], the pIC50 was 5.00 to 6.00.
`COc1cccc(-c2cnc(N)c(C(N)=O)n2)c1` [compound 10, 3-amino-6-[3-(methyloxy)phenyl]pyrazine-2-carboxamide] gave a pIC50 of 5.00 to 6.00.
On to `Nc1ncc(-c2ccccc2)nc1C(=O)N1CCCC1` [compound 11, 5-phenyl-3-(pyrrolidin-1-ylcarbonyl)pyrazin-2-amine], for which the pIC50 was less than 5.00.
Turning to `Nc1ncc(-c2ccccc2)nc1C(=O)NCC1CC1` [compound 12, 3-amino-N-(cyclopropylmethyl)-6-phenylpyrazine-2-carboxamide], the pIC50 is less than 5.00.
In turn, `Nc1ncc(-c2ccccc2)nc1C(=O)NCC1CCCO1` (centres unmarked) [compound 13, 3-amino-6-phenyl-N-(tetrahydrofuran-2-ylmethyl)pyrazine-2-carboxamide] showed a pIC50 of less than 5.00.
The molecule `CCCNC(=O)c1nc(-c2ccccc2)cnc1NCCC` [compound 15, 6-phenyl-N-propyl-3-(propylamino)pyrazine-2-carboxamide] had a pIC50 of less than 5.00.
`Cc1ccccc1-c1cnc(N)c(C(N)=O)n1` [compound 16, 3-amino-6-(2-methylphenyl)pyrazine-2-carboxamide] had a pIC50 of less than 5.00.
`Nc1ncc(-c2ccccc2)nc1C(=O)NC1CC1` [compound 20, 3-amino-N-cyclopropyl-6-phenylpyrazine-2-carboxamide] had a pIC50 of less than 5.00.
`NC(=O)c1nc(-c2ccc(F)c(F)c2)cnc1N` [compound 21, 3-amino-6-(3,4-difluorophenyl)pyrazine-2-carboxamide] had a pIC50 of less than 5.00.
Regarding `CNC(=O)c1nc(-c2ccc(F)cc2)cnc1N` [compound 22, 3-amino-6-(4-fluorophenyl)-N-methylpyrazine-2-carboxamide], the pIC50 was 5.00 to 6.00.
In the case of `CCOc1ccc(-c2cnc(N)c(C(N)=O)n2)cc1` [compound 23, 3-amino-6-[4-(ethyloxy)phenyl]pyrazine-2-carboxamide] it was 5.00 to 6.00; in that of `CCOc1cccc(-c2cnc(N)c(C(N)=O)n2)c1` [compound 24, 3-amino-6-[3-(ethyloxy)phenyl]pyrazine-2-carboxamide], 5.00 to 6.00.
Take `NC(=O)c1nc(-c2ccc3c(c2)OCO3)cnc1N` [compound 25, 3-amino-6-(1,3-benzodioxol-5-yl)pyrazine-2-carboxamide]: the pIC50 was less than 5.00.
On to `NC(=O)c1nc(-c2cccc3ccccc23)cnc1N` [compound 26, 3-amino-6-naphthalen-1-ylpyrazine-2-carboxamide], for which the negative logarithm of the IC50 (pIC50) was less than 5.00.
`NC(=O)c1nc(-c2cccc(OC(F)(F)F)c2)cnc1N` [compound 28, 3-amino-6-{3-[(trifluoromethyl)oxy]phenyl}pyrazine-2-carboxamide]: the pIC50 is 5.00 to 6.00.
In turn, `NC(=O)c1cccc(-c2cnc(N)c(C(N)=O)n2)c1` [compound 29, 3-amino-6-[3-(aminocarbonyl)phenyl]pyrazine-2-carboxamide] had a pIC50 of 5.00 to 6.00.
In turn, `CC(=O)Nc1cccc(-c2cnc(N)c(C(N)=O)n2)c1` [compound 30, 6-[3-(acetylamino)phenyl]-3-aminopyrazine-2-carboxamide] showed a pIC50 of 5.00 to 6.00.
In the case of `NC(=O)c1nc(-c2ccc(-c3ccccc3)cc2)cnc1N` [compound 31, 3-amino-6-biphenyl-4-ylpyrazine-2-carboxamide] it was less than 5.00.
As for `CN(C)c1ccc(-c2cnc(N)c(C(N)=O)n2)cc1` [compound 32, 3-amino-6-[4-(dimethylamino)phenyl]pyrazine-2-carboxamide], the figure is 5.00 to 6.00; as for `Cc1cccc(-c2cnc(N)c(C(N)=O)n2)c1` [compound 33, 3-amino-6-(3-methylphenyl)pyrazine-2-carboxamide], 5.00 to 6.00.
The molecule `COC(=O)c1cccc(-c2cnc(N)c(C(N)=O)n2)c1` [compound 34, methyl 3-[5-amino-6-(aminocarbonyl)pyrazin-2-yl]benzoate] had a pIC50 of 5.00 to 6.00.
`NC(=O)c1nc(-c2cccc(OCc3ccccc3)c2)cnc1N` [compound 35, 3-amino-6-{3-[(phenylmethyl)oxy]phenyl}pyrazine-2-carboxamide] had a pIC50 of 6.00 to 7.30.
Take `NC(=O)c1nc(-c2cccc(O)c2)cnc1N` [compound 36, 3-amino-6-(3-hydroxyphenyl)pyrazine-2-carboxamide]: the pIC50 is 6.00 to 7.30.
`NC(=O)c1nc(-c2cc3ccccc3o2)cnc1N` [compound 37, 3-amino-6-(1-benzofuran-2-yl)pyrazine-2-carboxamide] showed a pIC50 of less than 5.00.
Consider `CNc1ncc(-c2ccccc2)nc1C(N)=O` [compound 38, 3-(methylamino)-6-phenylpyrazine-2-carboxamide], for which the pIC50 is less than 5.00.
Take `NC(=O)c1nc(-c2cccc(-c3ccccc3)c2)cnc1N` [compound 41, 3-amino-6-biphenyl-3-ylpyrazine-2-carboxamide]: the negative logarithm of the IC50 (pIC50) is 6.00 to 7.30.
As to `NC(=O)c1nc(-c2cccc(C(=O)O)c2)cnc1N` [compound 42, 3-[5-amino-6-(aminocarbonyl)pyrazin-2-yl]benzoic acid], the pIC50 is less than 5.00.
With `NC(=O)c1nc(-c2ccc(OCc3ccccc3)cc2)cnc1N` [compound 43, 3-amino-6-{4-[(phenylmethyl)oxy]phenyl}pyrazine-2-carboxamide], the pIC50 is less than 5.00.
`CNC(=O)c1nc(-c2cccc(OCc3ccccc3)c2)cnc1N` [compound 44, 3-amino-N-methyl-6-{3-[(phenylmethyl)oxy]phenyl}pyrazine-2-carboxamide] had a pIC50 of 5.00 to 6.00.
For `CNC(=O)c1nc(-c2cccc(O)c2)cnc1N` [compound 45, 3-amino-6-(3-hydroxyphenyl)-N-methylpyrazine-2-carboxamide], the pIC50 is 6.00 to 7.30.
Molecule `COCCNC(=O)c1nc(-c2ccccc2)cnc1N` [compound 46, 3-amino-N-[2-(methyloxy)ethyl]-6-phenylpyrazine-2-carboxamide] gave a pIC50 of 5.00 to 6.00.
`CC(=O)NCCNC(=O)c1nc(-c2ccccc2)cnc1N` [compound 47, N-[2-(acetylamino)ethyl]-3-amino-6-phenylpyrazine-2-carboxamide] had a pIC50 of less than 5.00.
For `NNC(=O)c1nc(-c2ccccc2)cnc1N` [compound 48, 3-amino-6-phenylpyrazine-2-carbohydrazide], the pIC50 was 5.00 to 6.00.
In the case of `Nc1ncc(-c2ccccc2)nc1C(=O)NO` [compound 49, 3-amino-N-hydroxy-6-phenylpyrazine-2-carboxamide] it was 5.00 to 6.00.

For the origin of these results see patent EP1501514B1, “PROTEIN KINASE MODULATORS AND METHODS OF USE” (Exelixis, Inc., priority 2002, dated 2003).
